Data reported in patent publication US11351179B1, “Pharmaceutical compositions and methods for treatment of psychiatric disorders” (LA PharmaTech Inc., priority 2021, dated 2022).

Columns and labels:
MDD and panic disorder = test: Clinical case: patient with MDD and panic disorder treated orally once daily; format: in vivo, human; conditions: each drug given for 2 months before the composition
Excerpt: A patient had MDD and panic disorder. […] Because azelastine is approved for the treatment of allergic rhinitis and asthma, and the combination composition of azelastine and folic acid had never been expected to be used to treat patients with depression or anxiety, this dramatic clinical outcome which included a fast reduction of symptoms was unexpected. […] This composition with two mechanisms of action of anti-inflammation would provide a new solution for treating psychiatric diseases which are incurable by other options, such traditional SSRIs, NSRIs, benzodiazepines, and the like alone.

[1] = test system: mild chronic depression and anxiety induced sleep disorder; test: Clinical case: patient with mild chronic depression and anxiety induced sleep disorder treated once daily; format: in vivo, human; conditions: citalopram and lorazepam together for 3 months before the composition
Protocol: A patient was diagnosed with mild chronic depression and anxiety induced sleep disorder and was treated with citalopram and lorazepam for 3 months. […] Then they were treated with a composition of folic acid (0.19 mg) and azelastine (2 mg) once daily. […] The inventors believe the hypothesis as explained in Example 1 above is applicable here as well. In this case, the composition of two mechanisms of action provided a new solution for treating their chronic depression and insomnia which could not be treated with other options, such traditional SSRIs, NSRIs, benzodiazepines, and the like alone.

Row | Structure (SMILES) | clinical improvement on prior treatment (MDD and panic disorder) | improvement of symptoms on prior treatment [1]
1 | O=C1CC2(CCCC2)CC(=O)N1CCCCN1CCN(c2ncccn2)CC1 [buspirone] | no significant clinical improvement | 
2 | O=C1Nc2ccc(Cl)cc2C(c2ccccc2Cl)=NC1O (stereo not drawn) [lorazepam] |  | never improved to the level of their satisfaction
3 | CN[C@H]1CC[C@@H](c2ccc(Cl)c(Cl)c2)c2ccccc21 [sertraline] | no significant clinical improvement | 
